Laboratory results taken from US12214076B2, “Drug delivery vehicles for atherosclerosis nanomedicine” (Northwestern University, priority 2019, dated 2025).
Peptide text beside a SMILES is read from it. * marks the point of attachment. Palmitoyl = CCCCCCCCCCCCCCCC(=O)*

How the values were obtained:
[1] = TEM nanofiber length of ApoA1-Ac2-26 PA co-assemblies; assay type: physicochemical; conditions: aged at least 24 hours at 4° C.
Description: TEM: Conventional TEM images were taken on a FEI Tecnai T-12 TEM at 80 kV with a Gatan Orius® 2 k×2 k CCD camera. PAs at 1 mM in phosphate buffered saline (PBS) were prepared for TEM by pipetting 8 μL atop copper supports that were covered with thin carbon foil 400-mesh and treated with glow discharge. After two minutes, samples were rinsed with deionized water and stained with 2% uranyl acetate for two minutes before imaging. PA nanofiber length was quantified manually using Fiji open source image processing software.

Zeta potential = assay type: physicochemical
Description: Zeta potential: The PA charge was characterized using a Zetasizer Nano ZS (Malvern). Samples were prepared at 0.5 mM and passed through a 0.2 μm filter (Acrodisc® Syringe Filters with Supor® Membrane, Pall). At least 10 scans were taken per measurement, three measurements per sample at 25° C. and 37° C.

J774.2 macrophages = test: Cellular uptake and localization of ApoA1-Ac2-26 PA; assay type: cell-based, mouse
Description: Cellular uptake and localization of ApoA1-Ac2-26 PA: PAs containing 40 mol % ApoA1 PA, 10 mol % MMP-Ac2-26 or ROS-Ac2-26 PA, 45.5 mol % E2 filler PA, and 4.5 mol % E2 filler PA with AF546 were co-assembled as described above and aged at least 1 week in PBS at 4° C. to promote nanofiber formation. Macrophages were seeded onto 6-channel μ-Slide VI 0.4 (ibidi) at 2.1×10^5 cells/cm^2 and allowed to adhere for 24 hours before adding 0.33 μM 10% MMP- or ROS-Ac2-26 PA and incubated at 37° C. for 1 or 24 hours. At each time point, the samples were fixed with 4% paraformaldehyde for 10 minutes, followed by permeabilization with 0.125% Triton-X for 10 minutes. The samples were rinsed twice with PBS and incubated with blocking buffer consisting of 2% w/v BSA for one hour at room temperature before incubating with 20 μg/mL LAMP1 antibody (rabbit polyclonal, abcam) for 12-18 hours at 4° C. The samples were rinsed twice with PBS containing 0.01% Tween-20 at one hour per rinse followed by an hour rinse with PBS before adding 2 μg/mL donkey anti-rabbit Alexa Fluor Plus 647 (Highly cross-adsorbed secondary antibody, Invitrogen) for 12-18 hours at 4° C. The samples were rinsed twice with PBS before adding 5 μg/mL 4′,6-Diamidino-2-Phenylindole (DAPI, ThermoFisher Scientific) and phalloidin (1:1000 dilution, CruzFluor™ 488 conjugate, Santa Cruz Biotechnology) for one hour at room temperature. Samples were rinsed and stored in PBS until image analysis. Microscopy was performed using Zeiss 880 confocal microscopy at 63× magnification with numerical aperture of 1.4. Lasers at 405, 488, 561, and 633 nm were used to collect images through Multi Channel acquisition, which uses a separate scan for each channel to avoid spectral overlap. 3D images were created using z-stacks with 9-14 μm thick sections compiled from 0.22 μm slices using a line step of 1, speed of 8, and image size of 1024×1024 pixels at 16 bit depth. To examine colocalization of PAs to endosomes/lysosomes, Manders coefficient calculations using the Coloc 2 plugin from Fiji were used.

LDLR KO mice = test: Targeting of atherosclerosis by IV injected ApoA1 PA nanofibers (Example 3); assay type: in vivo, mouse
Description: Mouse model of atherosclerosis: To study atherosclerosis, the LDLR KO mouse was used. LDLR KO mice are fed a high fat “western” diet (Teklad TD.88137) starting at 4 weeks of age. This diet consists of 20% fat, 0.2% cholesterol, and 34% high sucrose. LDLR KO mice fed this diet typically develop severe hypercholesterolemia (>800 mg/dL) and hypertriglyceridemia (>300 mg/dL) after only 2 weeks. By 12 weeks on the high fat diet, atherosclerotic lesions are detected in the aortic root and aortic arch on cryosections stained with Oil Red O (Sigma). Atherosclerosis was quantified in the aortic root as a percentage of the aortic root by taking the atherosclerotic area divided by the total aortic root area. Measurements were made with ImageJ software. All protocols for the animal model and procedures in this manuscript were approved by Northwestern University's Institutional Animal Care and Use Committee.
Injection of PA nanofibers: PA nanofibers were dissolved at 2-4 mg/mL concentration in room temperature phosphate buffered saline (PBS). After 14 weeks on the high fat diet, mice received intravenous injections of PA nanofiber dissolved in PBS (dorsal penile vein in males, retro-orbital injection in females) using a 31 G hypodermic insulin needle on a 0.3 mL syringe under sterile conditions and magnification (NIKON SMZ 645 Zoom Stereomicroscope). Mice were briefly anesthetized for injection with inhaled isoflurane. Mice were monitored and allowed to recover from anesthesia in a heated oxygen chamber.
Dose and concentration study: To determine the optimum concentration for targeting efficacy and safety, LDLR KO mice fed the high fat diet for 14 weeks were injected with PA nanofiber at concentrations of 1 mg/mL, 2 mg/mL, and 4 mg/mL at 8 mg/kg in PBS. Similarly, to determine the optimum dose for targeting efficacy and safety, LDLR KO mice fed the high fat diet for 14 weeks were injected at PA nanofiber doses of 8 mg/kg, 6 mg/kg, 4 mg/kg, 3.3 mg/kg, and 1.7 mg/kg at 2 mg/mL in PBS. Safety, optimum dose, and concentration for targeting was assessed by survival of the animal and fluorescent pixel quantification in the aortic root, liver, lungs, kidneys, and spleen.
Tissue processing and imaging: Mice were sacrificed and euthanized under inhaled isoflurane anesthesia by diaphragm disruption and exsanguination. Phlebotomy was performed through direct right ventricular cardiac puncture using a 1 mL syringe and 25 G needle. Perfusion was performed through left ventricular cardiac puncture with 10 mL PBS and 10 mL 10% sucrose solution. The lungs, liver, spleen, kidney, aortic root, aortic arch, and descending aorta were harvested and stored in 10% sucrose for 20 minutes. Organs and vessels were then flash-frozen in Optimal Cutting Temperature embedding medium 4583 (Tissue-Tek®) with liquid nitrogen. Frozen specimens were stored at −80° C. and cryosectioned at […]. Confocal microscopy was performed on a Nikon AIR microscope. Two sets of images were acquired with a 10× Plan Fluor NA 0.3 objective. PAs were identified through quantification of the Alexa Fluor® 546 conjugated dye with 561 nm excitation and a 600/50 nm emission filter.
Images were acquired with spectral detection and spectrally unmixed to accurately separate green autofluorescence from the red Alexa Fluor® 546 signal. Brightfield and fluorescent microscopy were performed using a Zeiss Axio Imager.A2 microscope with AxioVision software (release 4.8.2, 06-2010). All confocal and fluorescent sections were mounted with ProGold Diamond mounting media (Sigma). Slides were stained with Oil Red O to image and quantify atherosclerosis under brightfield microscopy. The elastic laminae were identified using the green fluorescent protein (GFP) filter with an exposure time of 3500 ms under 5× magnification. Nanofibers were identified in the aortic root by presence of Alexa Fluor® 546 on the Cy3 filter under 5-10× magnification, and in the internal organs under 20× magnification. […]

Molecule	median nanofiber length [1]	overall charge (zeta potential) (Zeta potential; 25° C.)	overall charge (zeta potential) (Zeta potential; 37° C.)	average Manders coefficient, LAMP1 to PA colocalization (J774.2 macrophages; 24 hours of treatment)	average Manders coefficient, PA to LAMP1 colocalization (J774.2 macrophages; 24 hours of treatment)	cellular retention of PAs (J774.2 macrophages; confocal microscopy)	binding duration in areas of atherosclerosis (LDLR KO mice; after injection)	time post injection when fluorescent pixel analysis was not different from control non-injected mice (LDLR KO mice; aortic root)	dose dependence of localization at the aortic root (LDLR KO mice; constant concentration 2 mg/mL)	fluorescent pixels in aortic root, 4 mg/mL vs. 2 mg/mL (LDLR KO mice; constant dose 8 mg/kg, 24 hours after injection)	localization in male versus female LDLR KO mice (LDLR KO mice; mouse, in vivo)	localization to areas of atherosclerosis (LDLR KO mice; within 24 hours after injection, confocal, Alexa Fluor 546)
10% MMP-Ac2-26 PA: co-assembly of 10 mol % MMP-Ac2-26 PA, 50 mol % E2 filler PA, and 40% ApoA1 PA (VVAAEEGGGPQGIWGQGKAMVSEFLKQAWFIENEEQEYVQTVK)	159 nm	−18.1±0.5 mV	maintained	0.79	0.48	found in the extracellular space	–	–	–	–	–	–
CCCCCCCCCCCCCCCC(=O)N[C@H](C(=O)N[C@H](C(=O)N[C@@H](C)C(=O)N[C@@H](C)C(=O)N[C@@H](CCC(=O)O)C(=O)N[C@@H](CCC(=O)O)C(=O)NCC(=O)N[C@@H](CC(=O)O)C(=O)N[C@@H](Cc1c[nH]c2ccccc12)C(=O)N[C@@H](Cc1ccccc1)C(=O)N[C@@H](CCCCN)C(=O)N[C@@H](C)C(=O)N[C@@H](Cc1ccccc1)C(=O)N[C@@H](Cc1ccc(O)cc1)C(=O)N[C@@H](CC(=O)O)C(=O)N[C@@H](CCCCN)C(=O)N[C@H](C(=O)N[C@@H](C)C(=O)N[C@@H](CCC(=O)O)C(=O)N[C@@H](CCCCN)C(=O)N[C@@H](Cc1ccccc1)C(=O)N[C@@H](CCCCN)C(=O)N[C@@H](CCC(=O)O)C(=O)N[C@@H](C)C(=O)N[C@@H](Cc1ccccc1)C(N)=O)C(C)C)C(C)C)C(C)C [ApoA1 PA] (Palmitoyl-VVAAEEGDWFKAFYDKVAEKFKEAF-NH2)	–	–	–	–	–	–	remained localized to areas of atherosclerosis at high concentrations for two days	10 to 14 days	Doses of 8 mg/kg and 6 mg/kg were superior to 4 mg/kg, which was superior to 1.7 mg/kg	no significant difference	no statistically significant difference in localization between the sexes	localized to areas of atherosclerosis
